Test results from ChEMBL document CHEMBL1201862, “PubChem BioAssay data set” (2004).
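Method: 48-hour compound exposure of cells in 96-well plates, five concentrations, linear interpolation of endpoints. GI50: concentration for 50% inhibition of growth.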 Calls of active or inactive are those of the source. Cut-off read from the data, not from the text of the source: active = GI50 up to about 1.1 µM and inactive = higher.

Key:
Test in all cases: NCI anticancer screen, dose series, 48 h
MDA-MB-435 = tested on: MDA-MB-435
OVCAR-3 = tested on: OVCAR-3
Hs-578T = tested on: Hs-578T
NCI/ADR-RES = tested on: NCI/ADR-RES
HOP-62 = tested on: HOP-62
CAKI-1 = tested on: CAKI-1
T47D = tested on: T47D
EKVX = tested on: EKVX
SK-MEL-5 = tested on: SK-MEL-5
SF-539 = tested on: SF-539
SNB-19 = tested on: SNB-19
HCC 2998 = tested on: HCC 2998
Malme-3M = tested on: Malme-3M
NCI-H522 = tested on: NCI-H522
MCF7 = tested on: MCF7
MDA-MB-231 = tested on: MDA-MB-231
HCT-116 = tested on: HCT-116
HL-60 = tested on: HL-60
CCRF-CEM = tested on: CCRF-CEM

Row | SMILES | GI50 (MDA-MB-435) | GI50 (OVCAR-3) | GI50 (Hs-578T) | GI50 (NCI/ADR-RES) | GI50 (HOP-62) | GI50 (CAKI-1) | GI50 (T47D) | GI50 (EKVX) | GI50 (SK-MEL-5) | GI50 (SF-539) | GI50 (SNB-19) | GI50 (HCC 2998) | GI50 (Malme-3M) | GI50 (NCI-H522) | GI50 (MCF7) | GI50 (MDA-MB-231) | GI50 (HCT-116) | GI50 (HL-60) | GI50 (CCRF-CEM)
1 | CC(=O)/C(=N\N=C(N)N)c1ccccc1 | > 100 µM (inactive) | > 100 µM (inactive) | > 100 µM (inactive) | > 100 µM (inactive) | > 100 µM (inactive) | > 100 µM (inactive) | 73.1 µM (inactive) | 68.1 µM (inactive) | > 100 µM (inactive) | > 100 µM (inactive) | > 100 µM (inactive) | 28.1 µM (inactive) | > 100 µM (inactive) | 59.8 µM (inactive) | > 100 µM (inactive) | > 100 µM (inactive) | > 100 µM (inactive) |  | 
2 | Cn1c(-c2ccc[se]2)ccc1-c1ccc(C=O)[se]1 | 11.4 µM (inactive) | 0.366 µM (active) | 25.2 µM (inactive) | 2.16 µM (inactive) | 0.385 µM (active) | 0.195 µM (active) | 0.325 µM (active) | 48.5 µM (inactive) | 20.7 µM (inactive) | 3.89 µM (inactive) | > 100 µM (inactive) | 2.47 µM (inactive) |  | 16.4 µM (inactive) | 0.124 µM (active) | 35.9 µM (inactive) | 0.59 µM (active) | 9.31 µM (inactive) | 0.859 µM (active)
3 | O=c1c2ccccc2nnn1-c1n[nH]c2ccccc12 | > 100 µM (inactive) | > 100 µM (inactive) | > 100 µM (inactive) | > 100 µM (inactive) | > 100 µM (inactive) | > 100 µM (inactive) | > 100 µM (inactive) | > 100 µM (inactive) | 37.8 µM (inactive) | > 100 µM (inactive) | > 100 µM (inactive) | > 100 µM (inactive) | > 100 µM (inactive) | > 100 µM (inactive) | > 100 µM (inactive) | > 100 µM (inactive) | > 100 µM (inactive) |  | > 100 µM (inactive)
4 | Clc1sc(Cl)c2c1[C@H](Cl)C[C@@H]2Cl | 18.2 µM (inactive) | 24.2 µM (inactive) | 15.9 µM (inactive) | 15.9 µM (inactive) | 38.5 µM (inactive) | 20.2 µM (inactive) | 17.6 µM (inactive) | 38.3 µM (inactive) | 32.4 µM (inactive) | 18.7 µM (inactive) |  | 15.2 µM (inactive) | 15 µM (inactive) | 1.07 µM (active) | 6.52 µM (inactive) | 32.1 µM (inactive) | 4.85 µM (inactive) |  | 6.82 µM (inactive)
5 | O=C(Cc1ccccc1)NCCc1ccc(O)c(O)c1 | 17.9 µM (inactive) | 35 µM (inactive) | > 100 µM (inactive) | > 100 µM (inactive) | > 100 µM (inactive) |  | > 100 µM (inactive) | > 100 µM (inactive) | > 100 µM (inactive) | > 100 µM (inactive) | > 100 µM (inactive) | > 100 µM (inactive) | > 100 µM (inactive) | 28.4 µM (inactive) | > 100 µM (inactive) | 37.2 µM (inactive) | > 100 µM (inactive) | 13.8 µM (inactive) | 5.14 µM (inactive)
6 | CC1(C)CC(=O)C2=C(C1)c1c(ccc3ccccc13)NC2c1cn(Cc2ccc(Cl)cc2)c2ccccc12 (stereo unspecified) | > 100 µM (inactive) | 18.7 µM (inactive) | 74.1 µM (inactive) | 52.6 µM (inactive) | 40.9 µM (inactive) | 13.3 µM (inactive) | 7.19 µM (inactive) | 30.7 µM (inactive) | > 100 µM (inactive) | > 100 µM (inactive) | 75 µM (inactive) |  |  | 66.8 µM (inactive) | > 100 µM (inactive) | > 100 µM (inactive) | 9.35 µM (inactive) | 37.8 µM (inactive) | 55.7 µM (inactive)
7 | CN1CC=C(c2c(N)nc(N)[nH]c2=O)CC1 | > 100 µM (inactive) | > 100 µM (inactive) | > 100 µM (inactive) | > 100 µM (inactive) | > 100 µM (inactive) | > 100 µM (inactive) | > 100 µM (inactive) | > 100 µM (inactive) | > 100 µM (inactive) | > 100 µM (inactive) | > 100 µM (inactive) |  | 80.2 µM (inactive) | > 100 µM (inactive) | > 100 µM (inactive) | > 100 µM (inactive) | > 100 µM (inactive) | > 100 µM (inactive) | > 100 µM (inactive)
8 | C[N+]1(Cc2ccc(Cl)c(Cl)c2)CCCC1C1CCCN(Cc2ccc(Cl)c(Cl)c2)C1 (stereo unspecified) | > 100 µM (inactive) | > 100 µM (inactive) | > 100 µM (inactive) | > 100 µM (inactive) | > 100 µM (inactive) | > 100 µM (inactive) | > 100 µM (inactive) | 46 µM (inactive) | 32.2 µM (inactive) | > 100 µM (inactive) | > 100 µM (inactive) | > 100 µM (inactive) | 82.4 µM (inactive) | > 100 µM (inactive) | > 100 µM (inactive) | > 100 µM (inactive) | > 100 µM (inactive) |  | 
9 | COc1ccc(-n2c(=O)n(C)c(=O)n2-c2c(C)c(C)c(C)c(C)c2C)cc1 | > 100 µM (inactive) | > 100 µM (inactive) | > 100 µM (inactive) | > 100 µM (inactive) | > 100 µM (inactive) | > 100 µM (inactive) | > 100 µM (inactive) | > 100 µM (inactive) | > 100 µM (inactive) | > 100 µM (inactive) | > 100 µM (inactive) | > 100 µM (inactive) | > 100 µM (inactive) | > 100 µM (inactive) | > 100 µM (inactive) | > 100 µM (inactive) | > 100 µM (inactive) |  | 0.148 µM (active)
10 | COc1ccc(NC2=CC(=O)C(=O)c3ccccc32)nn1 | 0.197 µM (active) | 1.2 µM (inactive) | 1.99 µM (inactive) | 0.514 µM (active) |  | 2.19 µM (inactive) | 3.4 µM (inactive) | 3.1 µM (inactive) | 0.643 µM (active) | 0.902 µM (active) | 2.9 µM (inactive) | 6.68 µM (inactive) | 0.661 µM (active) | 0.492 µM (active) | 0.557 µM (active) | 3.69 µM (inactive) |  | 0.273 µM (active) | 2.92 µM (inactive)
11 | CC1(C)C(C(=O)OC(C#N)c2cccc(OCC(=O)OCc3ccccc3)c2)C1(C)C (stereo unspecified) | > 100 µM (inactive) | > 100 µM (inactive) | > 100 µM (inactive) | 81.5 µM (inactive) | > 100 µM (inactive) | > 100 µM (inactive) | 45.8 µM (inactive) | > 100 µM (inactive) | > 100 µM (inactive) | > 100 µM (inactive) | > 100 µM (inactive) |  | > 100 µM (inactive) | > 100 µM (inactive) | 53 µM (inactive) | 66.1 µM (inactive) | 40.4 µM (inactive) | 2.3 µM (inactive) | 19.5 µM (inactive)
12 | c1csc(-c2cc(-c3ccsc3)c(-c3ccsc3)s2)c1 | > 100 µM (inactive) | > 100 µM (inactive) | > 100 µM (inactive) | > 100 µM (inactive) | > 100 µM (inactive) | > 100 µM (inactive) | 3.49 µM (inactive) | 8.15 µM (inactive) | > 100 µM (inactive) | > 100 µM (inactive) | > 100 µM (inactive) | 68.7 µM (inactive) | > 100 µM (inactive) | > 100 µM (inactive) | 24.8 µM (inactive) | > 100 µM (inactive) | > 100 µM (inactive) |  | > 100 µM (inactive)
13 | CSc1nc(N)c(NC2OC(CO)C(O)C2O)c(=O)[nH]1 (stereo unspecified) | > 100 µM (inactive) | > 100 µM (inactive) | > 100 µM (inactive) | > 100 µM (inactive) | > 100 µM (inactive) | > 100 µM (inactive) | > 100 µM (inactive) | > 100 µM (inactive) | > 100 µM (inactive) | > 100 µM (inactive) | > 100 µM (inactive) |  | > 100 µM (inactive) | > 100 µM (inactive) | > 100 µM (inactive) | > 100 µM (inactive) | > 100 µM (inactive) | > 100 µM (inactive) | > 100 µM (inactive)
14 | NC(=O)c1cc2ccc(O)cc2o/c1=N/NC(=O)c1ccccc1 | 74.3 µM (inactive) | 80.5 µM (inactive) | 81.3 µM (inactive) | > 100 µM (inactive) | > 100 µM (inactive) | 36.6 µM (inactive) | 15.6 µM (inactive) | > 100 µM (inactive) | 39.8 µM (inactive) |  | > 100 µM (inactive) | 33.4 µM (inactive) | 84.3 µM (inactive) | 42.3 µM (inactive) | > 100 µM (inactive) | 80.5 µM (inactive) | 66.2 µM (inactive) | 61 µM (inactive) | 48.6 µM (inactive)
15 | CC(=O)c1cc2ccccc2[n+]([O-])c1N | > 100 µM (inactive) | > 100 µM (inactive) | > 100 µM (inactive) | > 100 µM (inactive) | > 100 µM (inactive) | > 100 µM (inactive) | > 100 µM (inactive) | > 100 µM (inactive) | > 100 µM (inactive) | > 100 µM (inactive) |  | > 100 µM (inactive) | > 100 µM (inactive) | > 100 µM (inactive) | > 100 µM (inactive) | > 100 µM (inactive) | > 100 µM (inactive) | > 100 µM (inactive) | > 100 µM (inactive)
16 | C#CCOC(=O)[C@@H](C)c1ccc2cc(OC)ccc2c1 | 66.4 µM (inactive) |  | > 100 µM (inactive) | 68.2 µM (inactive) | > 100 µM (inactive) | > 100 µM (inactive) | > 100 µM (inactive) | 66.2 µM (inactive) | 40.9 µM (inactive) | 76.9 µM (inactive) | > 100 µM (inactive) |  |  | 40.2 µM (inactive) | 63.8 µM (inactive) | > 100 µM (inactive) | > 100 µM (inactive) | 15.1 µM (inactive) | 31.1 µM (inactive)
